# Data from US20230220047A1, “PEPTIDES FOR TREATMENT OF SEPSIS AND CANCER” (NORWEGIAN UNIVERSITY OF SCIENCE AND TECHNOLOGY (NTNU), priority 2020, published 2023).
# Tests used:
# TLR8 = test: Primary human macrophages stimulated with CL075: cytokine mRNA, Western blot, IRAK precipitations; format: cell-based; settings: CL075-treated primary human macrophages
# Method: (§1) Primary human macrophages (PBMC derived, differentiated in media with 10% human serum and M-CSF 20 ng/ml, 7 days) were stimulated with K12 LPS (100 ng/ml), FSL-1 (100 ng/ml) or CL075 (3 μg/ml). […] (B) qPCR for mRNA expression of IFNβ, IL-6, TNF and IL-1β, average for three biological replicates, error bars ±SD.
# (§2) Primary human macrophages (7 days) were pre-treated with Pen or P7-Pen (15 μM) for 30 min before addition of LPS (100 ng/ml), FSL-1 (100 ng/ml) or CL075 (3 μg/ml). A: Protein expression in lysates for input control. B,C: Precipitations were performed using sheep anti-IRAK4 (B) or anti-IRAK1 (C) polyclonal antibodies covalently bound to magnetic beads.
# TLR2 = test: Primary human macrophages stimulated with FSL-1: cytokine mRNA, Western blot, IRAK precipitations; format: cell-based
# Method: as §1, §2
# (§3) The effect of P7-Pen on TLR2-mediated pro-inflammatory cytokine expression was investigated.
# SLAMF1-TRAM interaction = target: T1, SLAMF1-TRAM interaction (Homo sapiens, UniProt Q86XR7); test: Co-precipitation of SLAMF1 and TRAM^Flag in the presence of ECFP-tagged peptides; format: binding; settings: N-terminal ECFP-tagged peptides, HEK-293T lysates, anti-Flag IP
# T1 construct: expressed in transfected cells; host or cells: HEK-293T
# T1 sequence (Q86XR7 whole entry): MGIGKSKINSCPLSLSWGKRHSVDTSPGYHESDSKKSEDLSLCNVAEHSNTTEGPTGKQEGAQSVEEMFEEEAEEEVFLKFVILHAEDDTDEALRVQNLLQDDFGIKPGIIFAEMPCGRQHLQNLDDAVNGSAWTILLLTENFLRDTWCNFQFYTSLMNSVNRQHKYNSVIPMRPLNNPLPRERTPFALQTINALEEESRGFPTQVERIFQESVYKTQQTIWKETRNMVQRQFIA
# Description: (A) Western blot analysis of SLAMF1 and TRAM^Flag co-precipitated in the presence of CFP-tagged peptides. TRAM^Flag was precipitated from cell lysates on agarose beads and distributed across 15 tubes. […] Unbound proteins/peptides were removed by a washing step, and pecipitates analysed by WB (anti-Flag IPs). Reduced SLAMF1 binding to TRAM indicates inhibition of the TRAM/SLAMF1 interaction by the peptide. (B) Sequences of the peptides that were expressed as ECFP-tagged proteins (N-terminal ECFP). Peptides 4 and 5 are not shown and were not pursued.
# HEK293T cells expressing Flag-tagged proteins were lysed using 1×lysis buffer (150 mM NaCl, 50 mM TrisHCl (pH 8.0), 1 mM EDTA, 1% NP40), supplemented with EDTA-free Complete Mini protease Inhibitor Cocktail Tablets and PhosSTOP phosphatase inhibitor cocktail from Roche, 50 mM NaF and 2 mM […] (Sigma). IPs were carried out by rotation of cell lysates at 4° C. for 2 h with anti-flag (M2) agarose (Sigma). Beads were washed 5 times with lysis buffer and heated for 5 min with 1×NuPAGE® LDS Sample Buffer (Thermo Fisher Scientific) before analysis of precipitates by Western blotting. […]
# Inhibition of the TRAM-SLAMF1 interaction using SLAMF1-derived peptides was tested. For the first line of experiments, SLAMF1-derived peptides were co-expressed as N-terminal ECFP-tagged proteins together with SLAMF1 and TRAM^FLAG constructs in HEK-293T cells.
# TLR4 [1] = test: Primary human macrophages stimulated with LPS: cytokine mRNA and p38 MAPK phosphorylation; format: cell-based; settings: LPS-treated primary human macrophages
# Method: as §1, §3
# TLR4 [2] = test: Western blot of LPS signalling in murine immortalized BMDMs; format: cell-based, mouse; settings: murine macrophages, 10 μM, LPS
# Method: Western blot analysis of lysates from cells pretreated with media containing controls (water, DMSO or 10 μM control peptide C3-Pen) or P7-Pen peptide for 30 min before stimulation with LPS (K12 LPS, 100 ng/ml) for designated time periods.
# Protein pellets were dissolved by heating protein pellets for 10 min at 95° C. in buffer containing 4 M urea, 1 SDS (Sigma) and NuPAGE® LDS Sample Buffer (4×) (Thermo Fisher Scientific). Otherwise, lysates were made using 1× RIPA lysis buffer (150 mM NaCl, 50 mM TrisHCl (pH 7.5), 1% Triton X100, 5 mM EDTA, protease inhibitors, phosphatase inhibitors). For Western blot analysis we used pre-cast protein gels NuPAGE™ Novex™ and iBlot Transfer Stacks iBlot Gel Transfer Device (Thermo Fisher Scientific). Proteins were transferred to the membrane by dry-blotting using iBlot® 2 NC Regular/Mini Stacks (Life Technologies) in the iBlot 2 Dry Blotting System (Life Technologies). After secondary antibody incubation, membranes were washed and incubated with HRP substrate solution (SuperSignal™ West Femto Maximum Sensitivity Substrate (Thermo Fisher Scientific)). Images were taken using Odyssey® Fc (LI-CORE). Quantification graphs were generated by the analysis of signal intensities for protein bands (protein of interest and endogenous loading control—β-tubulin from the same membrane) using Odyssey software (LI-CORE). Data were normalised to the expression levels of β-tubulin and presented as a relative fold change to the control sample.
# In addition, pre-treatment of murine macrophages with P7-Pen inhibited LPS-mediated phosphorylation of TBK1 and IκBα, and decreased phosphorylation of p38 MAPK (FIG. 23).
# SLAMF1 = target: T2, SLAMF1 (Homo sapiens, UniProt Q13291); test: Co-precipitation of SLAMF1 with peptide; format: binding; settings: data not shown
# T2 sequence (Q13291 21-335): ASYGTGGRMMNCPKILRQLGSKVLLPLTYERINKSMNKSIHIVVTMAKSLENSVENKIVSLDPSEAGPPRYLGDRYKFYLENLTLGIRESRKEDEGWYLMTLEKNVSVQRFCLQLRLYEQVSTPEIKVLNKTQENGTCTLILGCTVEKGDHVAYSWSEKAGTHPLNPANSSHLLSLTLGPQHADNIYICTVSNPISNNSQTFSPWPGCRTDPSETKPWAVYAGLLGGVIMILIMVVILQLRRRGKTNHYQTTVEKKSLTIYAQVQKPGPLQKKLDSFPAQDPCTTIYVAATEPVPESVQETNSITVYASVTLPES
# Description: The striking effect of the P7 peptide on bacterial uptake could explain the blockade of TLR4-mediated IFNβ secretion by this peptide, because activation of IFNβ expression can only be initiated from the endosomal compartment. This effect could also be mediated by peptide interaction with Rab11 FIP2 (data not shown), which is a crucial regulator of TRAM trafficking and the uptake of both Gram-negative and Gram-positive bacteria by macrophages (Skjesol, supra). […] P7 is derived from a C-terminal β-sheet, and so could complex with the SLAMF1 N-terminal beta sheet. Given the effect of P7-Pen on bacterial uptake, it could be used to block bacterial uptake by monocytes, thus making bacteria more exposed to antibiotic treatment.
substance,measurement,setting,value
P7: SEQ ID NO: 1; amino acids 324-333 of SLAMF1 with a proline to threonine substitution at position 10 (ITVYASVTLT; P7) [Peptide P7],"phosphorylation of p38 MAPK and IL-6, TNF and IL-1β expression",TLR8,not
same,"phosphorylation of p38 MAPK and IL-6, TNF and IL-1β expression",TLR2; FSL-1-treated primary human macrophages,not
same,"phosphorylation of p38 MAPK, posttranslational modifications of IRAK1, recruitment of IRAK1 and 4 to MyD88","TLR2; TLR2-stimulated cells, 15 μM, FSL-1 100 ng/ml",does not inhibit
same,inhibitory effect on SLAMF1-TRAM co-precipitation,SLAMF1-TRAM interaction,highest efficacy
same,"phosphorylation of p38 MAPK and IL-6, TNF and IL-1β expression",TLR4 [1],fully inhibited
same,phosphorylation of TAK1 kinase and IRAK1 ubiquitination/phosphorylation,TLR4 [2],interfered
same,co-precipitation of SLAMF1,SLAMF1,could also co-precipitate
